Each structure is given as a SMILES string. Counter-ions that a name gives are not always drawn.

Broadly, the Ki is the dissociation constant of the complex between target and ligand, obtained from inhibition or displacement. Read a low Ki as higher affinity. One may read the Emax as the maximal effect, on the per cent scale that the assay sets. As a reminder, the IC50 is the concentration that gives 50% inhibition. The term melting point denotes the temperature, or range, at which the solid turns liquid. Broadly, the EC50 is the concentration needed to bring the measured effect to its halfway point.

Series [1] deals with T1, human 5HT1A receptor (Homo sapiens, UniProt P08908).
T1 construct: expressed in transfected cells; host or cells: CHO cells (stably transfected)
T1 sequence (P08908 1-422): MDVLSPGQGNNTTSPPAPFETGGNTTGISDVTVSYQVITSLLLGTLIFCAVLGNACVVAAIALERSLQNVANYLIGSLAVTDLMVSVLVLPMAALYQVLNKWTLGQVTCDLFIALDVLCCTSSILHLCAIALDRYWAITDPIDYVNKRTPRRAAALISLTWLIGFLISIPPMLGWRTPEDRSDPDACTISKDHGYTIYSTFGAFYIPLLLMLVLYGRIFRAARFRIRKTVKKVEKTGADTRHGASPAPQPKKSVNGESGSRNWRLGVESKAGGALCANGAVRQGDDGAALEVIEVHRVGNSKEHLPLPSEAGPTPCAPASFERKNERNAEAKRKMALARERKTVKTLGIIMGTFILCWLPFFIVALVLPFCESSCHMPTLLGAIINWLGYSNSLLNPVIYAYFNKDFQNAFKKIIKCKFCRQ
In words: 5-HT1A receptor binding assay ([3H] 8-OH-DPAT displacement). The settings on record: displacement of [3H] 8-OH-DPAT, CHO cells stably transfected with human 5HT1A receptor. On the procedure:
5-HT1A Receptor Binding Assay
High affinity for the serotonin 5-HT1A receptor was established by testing the compound's ability to displace [^3H] 8-OH-DPAT bindino in CHO cells stably transfected with human 5HT1A receptor. Stably transfected CHO cells are grown in DMEM containing 10% heat inactivated FBS and non-essential amino acids. Cells are scraped off the plate, transferred to centrifuge tubes, and washed twice by centrifugation (2000 rpm for 10 min., 4° C.) in buffer (50 mM Tris pH 7.5). The resulting pellets are aliquoted and placed at −80° C. On the day of assay, the cells are thawed on ice and resuspended in buffer. The binding assay is performed in a 96 well microtiter plate in a total volume of 250 μL. Non-specific binding is determined in the presence of […] 5-HT, final ligand concentration is 1.5 nM. Following a 30 minute incubation at room temperature, the reaction is terminated by the addition of ice cold buffer and rapid filtration through a GF/B filter presoaked for 30 minutes in 0.5% PEI. Compounds are initially tested in a single point assay to determine percent inhibition at […], and Ki values are determined for the active compounds.
Background: Loss of bound radioactivity is the signal in a displacement assay; it reports binding, not function.

Series [2] concerns the target T1, human 5HT1A receptor. In words: 5-HT1A receptor intrinsic activity assay (cAMP). The class given is cell-based. The settings on record: for IC50: antagonist mode: reversal of agonist-induced activity, antagonist preincubated 20 minutes before agonist and forskolin; for EC50: agonist mode: reversal of forskolin-stimulated cAMP in CHO cells transfected with human 5-HT1A. On the procedure: 5-HT1A Receptor Intrinsic Activity Assay
The intrinsic activity of compounds of the present invention was established by testing the claimed compounds ability to reverse the stimulation of cyclic adenosinemonophosphate (cAMP) in CHO cells stably transfected with the human 5-HT1A receptor.
Stably transfected CHO cells were grown in DMEM containing 10% heat inactivated FBS and non-essential amino acids. The cells are plated at a density of […] cells per well in a 24 well plate and incubated for 2 days in a CO2 incubator. On the second day, the media is replaced with 0.5 mL treatment buffer (DMEM+25 mM HEPES, 5 mM theophylline, 10 μM pargyline) and incubated for 10 minutes at 37° C. Wells are treated with forskolin (1 μM final concentration) followed immediately by the test compound (0.1 and 1 μM for initial screen) and incubated for an additional 10 minutes at 37° C. The reaction is terminated by removal of the media and addition of 0.5 mL ice cold assay buffer (supplied in the RIA kit). Plates are stored at −20° C. prior to assessment of cAMP formation by RIA. EC50 values are determined for the active test compounds. Compounds shown to have no agonist activities (Emax=0%) are further analyzed for their ability to reverse agonist-induced activity. In separate experiments, 6 concentrations of antagonist are preincubated for 20 minutes prior to the addition of agonist and forskolin. Cells are harvested as described above. The cAMP kit is supplied by Amersham and the RIA is performed as per kit instructions, and calculations of IC50 performed by GraphPad Prism.

Setting [3] is: agonist mode: reversal of forskolin-stimulated cAMP, Emax=0% means no agonist activity.

For `COc1ccccc1C1CCN(C[C@@H](Cc2ccncc2)N(C)C(=O)C2CCCCC2)CC1` [Example 10, Cyclohexanecarboxylic acid {(1R)-2-[4-(2-Methoxy-phenyl)-piperidin-1-yl]-1-pyridin-4-ylmethyl-ethyl}-methyl-amide], the Ki on human 5HT1A receptor [1] was 1.18 nM. The Emax at human 5HT1A receptor [2] (setting [3]) is 0%. Moreover, at human 5HT1A receptor [2], the IC50 amounted to 19.3 nM. `COc1ccccc1C1CCN(C[C@@H](Cc2ccncc2)N(C)C(=O)C2CCCCC2)CC1` (as salt: hydrochloride) [Example 10, Cyclohexanecarboxylic acid {(1R)-2-[4-(2-Methoxy-phenyl)-piperidin-1-yl]-1-pyridin-4-ylmethyl-ethyl}-methyl-amide] came in with a melting point of 158 to 160 °C. On to `COc1ccccc1C1CCN(C[C@@H](Cc2cccnc2)N(C)C(=O)C2CCCCC2)CC1` [Example 9, Cyclohexanecarboxylic Acids {(1R)-2-[4-(2-Methoxy-phenyl)-piperidin-1-yl]-1-pyridin-3-ylmethyl-ethyl}-methyl-amide], for which, on human 5HT1A receptor [1], the Ki came to 1.77 nM. Besides, the Emax on human 5HT1A receptor [2] (setting [3]) worked out at 0%. For the compound `COc1ccccc1C1CCN(C[C@@H](Cc2ccccc2)NC(=O)C2(C)CCCCC2)CC1` (as salt: fumarate) [Example 5, (R)-1-Methyl-cyclohexanecarboxylic Acid {1-Benzyl-2-[4-(2-methoxy-phenyl)-piperidin-1-yl]-ethyl}-amide], the melting point was in the range of 77 to 79 °C.

As for `COc1ccccc1C1CCN(C[C@@H](Cc2ccncc2)NC(=O)C2(C)CCCCC2)CC1` [Example 8, 1-Methyl-cyclohexanecarboxylic Acid {(1R)-2-[4-(2-Methoxy-phenyl)-piperidin-1-yl]-1-pyridin-4-ylmethyl-ethyl}-amide], the affinity on human 5HT1A receptor [1], expressed as Ki, was 0.63 nM. Moreover, at human 5HT1A receptor [2] (setting [3]), the Emax stood at 0%. `COc1ccccc1C1=CCN(C[C@@H](Cc2ccccc2)NC(=O)C2CCCCC2)CC1` [Example 3, (R)-Cyclohexanecarboxylic Acid {1-Benzyl-2-[4-(2-methoxy-phenyl)-3,6-dihydro-2H-pyridin-1-yl]-ethyl}-amide] showed an inhibitory constant (Ki) on human 5HT1A receptor [1] of 0.22 nM. In addition, the 50% effective concentration (EC50) on human 5HT1A receptor [2] was determined as 3.4 nM.

`COc1ccccc1C1=CCN(C[C@@H](Cc2ccccc2)NC(=O)C2(C)CCCCC2)CC1` (as salt: fumarate) [Example 4, (R)-1-Methyl-cyclohexanecarboxylic Acid {1-Benzyl-2-[4-(2-methoxy-phenyl)-3,6-dihydro-2H-pyridin-1-yl]-ethyl}-amide] had a melting point of 102 to 104 °C. The same measure, in the same setting: the same measure for `COc1ccccc1C1CCN(C[C@@H](Cc2ccccc2)NC(=O)C2CCCCC2)CC1` (as salt: fumarate) [Example 6, (R)-Cyclohexanecarboxylic Acid {1-Benzyl-2-[4-(2-methoxy-phenyl)-piperidin-1-yl]-ethyl}-amide]: 103 to 105 °C. In turn, `COc1ccccc1C1=CCN(C[C@@H](Cc2ccccc2)NC(=O)C2CCCCC2)CC1` (as salt: fumarate) [Example 3, (R)-Cyclohexanecarboxylic Acid {1-Benzyl-2-[4-(2-methoxy-phenyl)-3,6-dihydro-2H-pyridin-1-yl]-ethyl}-amide] came in with a melting point of 146 to 148 °C. As to `COc1ccc(F)cc1C1CCN(C[C@@H](Cc2ccccc2)N(C)C(=O)C2(C)CCCCC2)CC1` (as salt: fumarate) [Example 1, 1-Methyl-cyclohexanecarboxylic Acid {(1R)-1-Benzyl-2-[4-(5-fluoro-2-methoxy-phenyl)-piperidine-1-yl]-ethyl}-methyl-amide], the melting point was 160 to 165 °C. On the same count and under the same terms, the same measure for `COc1ccccc1C1CCN(C[C@@H](Cc2cccnc2)N(C)C(=O)C2CCCCC2)CC1` (as salt: hydrochloride) [Example 9, Cyclohexanecarboxylic Acids {(1R)-2-[4-(2-Methoxy-phenyl)-piperidin-1-yl]-1-pyridin-3-ylmethyl-ethyl}-methyl-amide]: 148 to 150 °C. `COc1ccccc1C1CCN(C[C@@H](Cc2cccnc2)NC(=O)C2(C)CCCCC2)CC1` (as salt: fumarate) [Example 7, 1-Methyl-cyclohexanecarboxylic Acid {(1R)-2-[4-(2-Methoxy-phenyl)-piperidin-1-yl]-1-pyridin-3-ylmethyl-ethyl}-amide] showed a melting point of 99 to 101 °C. Compound `COc1ccccc1C1=CCN(C[C@@H](Cc2ccccc2)NC(=O)C2(C)CCCCC2)CC1` [Example 4, (R)-1-Methyl-cyclohexanecarboxylic Acid {1-Benzyl-2-[4-(2-methoxy-phenyl)-3,6-dihydro-2H-pyridin-1-yl]-ethyl}-amide] displayed a Ki on human 5HT1A receptor [1] of 0.25 nM. In addition, the EC50 on human 5HT1A receptor [2] amounted to 4.3 nM. The compound `COc1ccccc1C1CCN(C[C@@H](Cc2cccnc2)NC(=O)C2(C)CCCCC2)CC1` [Example 7, 1-Methyl-cyclohexanecarboxylic Acid {(1R)-2-[4-(2-Methoxy-phenyl)-piperidin-1-yl]-1-pyridin-3-ylmethyl-ethyl}-amide] yielded a Ki on human 5HT1A receptor [1] of 0.74 nM. The Emax on human 5HT1A receptor [2] (setting [3]) came to 0%. Further, the IC50 at human 5HT1A receptor [2] turned out to be 38 nM.

For the compound `COc1ccc(F)cc1C1=CCN(C[C@@H](Cc2ccccc2)N(C)C(=O)C2(C)CCCCC2)CC1` [Example 2, 1-Methyl-cyclohexanecarboxylic Acid {(1R)-1-Benzyl-2-[4-(5-fluoro-2-methoxy-phenyl)-1,2,5,6-tetrahydro-4H-pyridin-1-yl]-ethyl}-methyl-amide], the inhibition constant Ki at human 5HT1A receptor [1] was 4.9 nM. On human 5HT1A receptor [2] (setting [3]), the “cAMP Emax” value is on record as 0%. Consider `COc1ccccc1C1CCN(C[C@@H](Cc2ccncc2)NC(=O)C2(C)CCCCC2)CC1` (as salt: fumarate) [Example 8, 1-Methyl-cyclohexanecarboxylic Acid {(1R)-2-[4-(2-Methoxy-phenyl)-piperidin-1-yl]-1-pyridin-4-ylmethyl-ethyl}-amide], for which the melting point lay within 108 to 110 °C.

The values are drawn from patent US6503928B2, “Arylpiperidine and aryl-1,2,5,6-tetrahydropyridine amide derivatives” (Wyeth, priority 1998, dated 2003).
